Test results reported in patent EP0369391A2, “N-substituted amides” (BOEHRINGER INGELHEIM PHARMACEUTICALS INC., priority 1988, dated 1990).
Several values for one entry are separate records, joined by “and”; a condition that tells them apart may be missing. Identical values can stand only once. Like-named read-outs stand apart in the source and are kept apart here.

Experiments:
[1] = biological target: T1, Human sputum elastase ( HSE ) (Homo sapiens, UniProt P08246); assay: Elastase Inhibition - In Vitro Method (hydrolysis of MeO-Suc-Ala-Ala-Pro-Val-pNA, microtiter format); format: biochemical; conditions: for inhibition at 5 µg/mL: 5ug/mL compound; for IC50: 0.5 mM substrate, 15 minutes pre-incubation
T1 construct: Human sputum elastase ( HSE ) (Elasten Products Co., Pacific, Mo.); purchased Elasten Products Co., Pacific, Mo; host or cells: human sputum (by the name of the product)
T1 sequence (P08246 30-267): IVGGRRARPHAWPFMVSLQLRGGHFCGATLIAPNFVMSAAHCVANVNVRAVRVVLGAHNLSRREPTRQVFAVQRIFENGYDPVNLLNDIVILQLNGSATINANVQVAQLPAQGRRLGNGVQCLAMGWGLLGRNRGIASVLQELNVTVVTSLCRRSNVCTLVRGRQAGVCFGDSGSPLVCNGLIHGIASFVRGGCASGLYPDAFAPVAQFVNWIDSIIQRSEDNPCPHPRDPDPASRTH
Source text: The in vitro assay is based upon the hydrolysis of the commercially available (Sigma Chemical Company, St. Louis, Missouri) substrate methoxy O-succinyl-L-alanyl-L-alanyl-L-prolyl-L-valine para-nitroanilide (MeO-Suc-Ala-Sla-Pro-Val-pNA) and the resulting release of p-nitroanilide (pNA), which absorbs at 405 nm.
• a. Microtiter plates (96 well, flat bottom) • b. Vmax Kinetic Microtiter Plate Reader, equipped with 405 nm filter (Molecular Devices) • c. Microtiter Plate Mixer (Fisher Scientific) • d.
• a. Human sputum elastase ( HSE ) (Elasten Products Co., Pacific, Mo.) dissolved in 1 mg/mL in 0.05 M sodium chloride and frozen (50 µL aliquots) at -20°C until used. • b. Stock solution of MeO-Suc-Ala-Ala-Pro-Val-pNA dissolved at 15 mM in dimethylsulfoxide (DMSO) and frozen (4 mL aliquots) at -20°C until used. • c. Assay buffer: 0.1 M Tris buffer, pH 7.5 containing 0.5 sodium chloride
Screening is performed in microtiter plates, using 0.5 mM substrate and monitored on a Microtiter Reader. Enzyme activity (+/- test compound) is determined as the rate of pNA release (linear regression analysis of slope). Inhibitory activity of the test compound is calculated relative to the uninhibited enzyme control, as follows: [formula]
A frozen aliquot of HSE is thawed and diluted with assay buffer to a stock concentration of 0.02 mg/mL ( 30 x assay concentration). A frozen aliquot of the substrate stock solution is thawed and diluted to 0.5 mM with the assay buffer (final DMSO concentration is […]). 10 µl of the test compound stock solution (or assay buffer) and 10 µl of the HSE stock solution are pipetted into each microtiter well, in duplicate. The plate is mixed well, and pre-incubated at room temperature for 15 minutes. A 300 µl substrate solution is then added to each well and the OD₄₀₅ is followed for approximately 30 minutes.

PT = conditions: IC50 of 5 or greater is considered inactive
Human Cathepsin B = Human Cathepsin B (Homo sapiens, UniProt P07858); assay: Selectivity assay: Human Cathepsin B; format: biochemical; conditions: IC50 of 5 or greater is considered inactive
Human Urokinase = Human Urokinase (Homo sapiens, UniProt P00749); assay: Selectivity assay: Human Urokinase; format: biochemical; conditions: IC50 of 5 or greater is considered inactive
APTT = assay: Selectivity assay: APTT; conditions: IC50 of 5 or greater is considered inactive
Human Renin = biological target: T2, Human Renin (Homo sapiens, UniProt P00797); assay: Selectivity assay: Human Renin; format: biochemical; conditions: IC50 of 5 or greater is considered inactive
T2 sequence (P00797 67-406): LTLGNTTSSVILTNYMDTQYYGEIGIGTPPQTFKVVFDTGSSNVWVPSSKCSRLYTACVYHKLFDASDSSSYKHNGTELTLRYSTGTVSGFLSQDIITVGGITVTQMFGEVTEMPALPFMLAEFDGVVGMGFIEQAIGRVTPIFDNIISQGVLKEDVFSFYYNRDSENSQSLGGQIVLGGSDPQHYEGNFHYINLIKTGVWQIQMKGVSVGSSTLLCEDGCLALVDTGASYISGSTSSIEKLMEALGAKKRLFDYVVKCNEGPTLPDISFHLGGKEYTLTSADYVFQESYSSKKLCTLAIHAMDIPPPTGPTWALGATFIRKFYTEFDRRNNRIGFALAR

Human Cathepsin G = biological target: T3, Human Cathepsin G (Homo sapiens, UniProt P08311); assay: Selectivity assay: Human Cathepsin G; format: biochemical; conditions: IC50 of 5 or greater is considered inactive
T3 sequence (P08311 21-244): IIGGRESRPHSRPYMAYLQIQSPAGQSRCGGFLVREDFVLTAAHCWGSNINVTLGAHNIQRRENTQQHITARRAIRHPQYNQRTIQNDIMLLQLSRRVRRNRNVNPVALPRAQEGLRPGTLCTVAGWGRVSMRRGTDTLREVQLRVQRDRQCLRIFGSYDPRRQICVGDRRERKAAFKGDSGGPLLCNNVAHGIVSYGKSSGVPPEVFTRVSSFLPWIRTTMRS

[2] = biological target: Tissue Plasminogen Activator (Homo sapiens, UniProt P00750); assay: Selectivity assay: Tissue Plasminogen Activator; format: biochemical; conditions: IC50 of 5 or greater is considered inactive
Total Complement = assay: Selectivity assay: Total Complement; conditions: IC50 of 5 or greater is considered inactive
Human C1 Esterase = biological target: T4, Human C1 Esterase (Homo sapiens, UniProt P09871); assay: Selectivity assay: Human C1 Esterase; format: biochemical; conditions: IC50 of 5 or greater is considered inactive
T4 sequence (P09871 16-688): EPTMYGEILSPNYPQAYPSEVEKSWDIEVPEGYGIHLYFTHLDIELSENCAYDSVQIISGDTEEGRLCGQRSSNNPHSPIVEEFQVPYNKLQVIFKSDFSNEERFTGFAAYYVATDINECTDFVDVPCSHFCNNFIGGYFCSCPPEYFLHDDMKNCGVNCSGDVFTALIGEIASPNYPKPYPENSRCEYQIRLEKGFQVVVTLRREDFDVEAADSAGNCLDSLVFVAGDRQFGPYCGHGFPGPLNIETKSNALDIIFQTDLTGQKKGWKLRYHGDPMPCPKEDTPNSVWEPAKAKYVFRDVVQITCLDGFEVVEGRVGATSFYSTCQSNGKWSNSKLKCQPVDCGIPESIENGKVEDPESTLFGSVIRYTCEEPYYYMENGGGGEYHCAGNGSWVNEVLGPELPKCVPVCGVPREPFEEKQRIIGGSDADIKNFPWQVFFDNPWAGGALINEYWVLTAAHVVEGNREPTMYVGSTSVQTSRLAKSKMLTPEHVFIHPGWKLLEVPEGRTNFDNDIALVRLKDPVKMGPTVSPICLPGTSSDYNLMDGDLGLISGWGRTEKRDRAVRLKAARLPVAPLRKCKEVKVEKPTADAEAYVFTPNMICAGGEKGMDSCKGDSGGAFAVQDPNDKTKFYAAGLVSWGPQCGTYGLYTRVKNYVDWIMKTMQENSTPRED

Polio 3C - Proteinase = Polio 3C - Proteinase (Poliovirus type 1, UniProt P03300); assay: biochemical
[3] = biological target: T5, human neutrophil elastase (HNE) (Homo sapiens, UniProt P08246); assay: Elastase Inhibition - Animal Model (acute hamster hemorrhage model); conditions: 20 ug i.t. compound, 50 µg HNE i.t., hemorrhage in lung lavage after 18 hours
T5 sequence (P08246 30-247 limits assumed): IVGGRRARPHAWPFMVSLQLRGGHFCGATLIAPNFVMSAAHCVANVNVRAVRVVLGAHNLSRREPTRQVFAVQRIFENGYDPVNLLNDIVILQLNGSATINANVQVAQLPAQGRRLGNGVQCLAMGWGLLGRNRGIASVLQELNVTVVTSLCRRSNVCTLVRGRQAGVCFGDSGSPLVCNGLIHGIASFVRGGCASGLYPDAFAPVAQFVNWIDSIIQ

[4] = 0 % HSA, read-out: % Inhib. (5ug/mL) 0 % HSA
[5] = 0.5 % HSA added, read-out: % Inhib. (5ug/mL) 0.5 % HSA

Chain of Polio 3C - Proteinase (P03300 1566-1748 limits assumed): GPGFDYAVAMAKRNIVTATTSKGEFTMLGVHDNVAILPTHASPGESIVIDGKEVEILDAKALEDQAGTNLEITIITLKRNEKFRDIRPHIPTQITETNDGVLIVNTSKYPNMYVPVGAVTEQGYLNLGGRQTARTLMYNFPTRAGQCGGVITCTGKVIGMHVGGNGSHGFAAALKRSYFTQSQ
Chain of Tissue Plasminogen Activator (P00750 36-562): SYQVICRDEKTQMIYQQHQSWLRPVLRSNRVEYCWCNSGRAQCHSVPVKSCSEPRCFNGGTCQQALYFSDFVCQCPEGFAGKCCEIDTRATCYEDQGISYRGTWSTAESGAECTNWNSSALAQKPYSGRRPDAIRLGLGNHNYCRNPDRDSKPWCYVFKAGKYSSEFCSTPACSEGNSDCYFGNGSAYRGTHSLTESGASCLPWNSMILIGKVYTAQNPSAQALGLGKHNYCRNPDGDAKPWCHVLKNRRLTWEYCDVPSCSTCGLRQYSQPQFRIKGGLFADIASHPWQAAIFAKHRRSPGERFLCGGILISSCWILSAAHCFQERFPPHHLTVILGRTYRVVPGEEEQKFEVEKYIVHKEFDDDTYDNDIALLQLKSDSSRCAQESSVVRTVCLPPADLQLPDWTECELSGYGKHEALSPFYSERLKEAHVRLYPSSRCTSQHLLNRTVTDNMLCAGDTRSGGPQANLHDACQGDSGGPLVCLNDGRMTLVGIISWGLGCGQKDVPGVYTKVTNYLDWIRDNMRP

SMILES: COc1ccc(CCN(CC(=O)NC(C(=O)C(F)(F)F)C(C)C)C(=O)[C@@H](NC(=O)OCc2ccccc2)C(C)C)cc1OC (stereo partly shown) [3,4 - Dimethoxyphenethyl, CBZ]
- inhibition at 5 µg/mL [1, 4]: 95.1%
- inhibition at 5 µg/mL [1, 5]: 87.8%
- IC50 ([1]; Table I): 0.432 µg/mL

SMILES: CC(C)C(NC(=O)CN(C(=O)[C@@H](NC(=O)c1ccc(C(=O)NS(=O)(=O)c2ccc(Cl)cc2)cc1)C(C)C)C1Cc2ccccc2C1)C(=O)C(F)(F)F (stereo partly shown) [Compound of Table III]
- IC50 (PT): >> 100 ug/mL
- IC50 (Human Cathepsin B): > 6.55 µM
- IC50 (Human Urokinase): > 6.55 µM
- IC50 (APTT): >> 100 ug/mL
- IC50 (Human Renin): > 6.55 µM
- IC50 (Human Cathepsin G): > 9.17 µM
- IC50 [2]: > 6.55 µM
- IC50 (Total Complement): >> 100 ug/mL
- IC50 (Human C1 Esterase): > 6.55 µM
- IC50 (Polio 3C - Proteinase): > 82.5 µM

SMILES: CC(C)C(NC(=O)CN(C(=O)[C@@H](NC(=O)c1ccc(C(=O)NS(=O)(=O)c2ccc(Cl)cc2)cc1)C(C)C)C1CCCC1)C(=O)C(F)(F)F (single isomer, unassigned) [Cyclopentyl, p-[p-Cl(C6H4)SO2NHCO](C6H4)CO - (Diastereomer of Above), [[4-(4-Chlorophenyl)sulfonylaminocarbonyl]phenyl-1-oxomethyl]-L-Valyl-N-cyclopentyl-glycyl-N-[3-(1,1,1-trifluoro-4-methyl-2-oxypentyl)]amide]
- % Inhib. (20 ug. i.t.) [3]: 99.0%
- inhibition at 5 µg/mL [1, 4]: 99.8%
- inhibition at 5 µg/mL [1, 5]: 99.7%

SMILES: CC(C)C(NC(=O)CN(C(=O)[C@@H](NC(=O)c1ccc(C(=O)NS(=O)(=O)c2ccc(Cl)cc2)cc1)C(C)C)C1CC2CCC1C2)C(=O)C(F)(F)F (stereo partly drawn) [[[4-(4-Chlorophenyl)sulfonylaminocarbonyl]phenyl-1-oxomethyl]-L-Valyl-N-(exo-bicyclo[2,2,1]hept-2-yl)glycyl-N-[3-(1,1,1-trifluoro-4-methyl-2-oxypentyl)]amide]
- % Inhib. (20 ug. i.t.) [3]: 93.8%
- inhibition at 5 µg/mL [1, 4]: 99.8%
- inhibition at 5 µg/mL [1, 5]: 99.5%
- IC50 ([1]; Table I): 0.045 µg/mL

SMILES: CC(C)C(NC(=O)CN(C(=O)[C@@H](NC(=O)OCc1ccccc1)C(C)C)C1CCCC1)C(=O)C(F)(F)F (stereo partly shown) [Cyclopentyl, CBZ]
- inhibition at 5 µg/mL [1, 4]: 100%
- inhibition at 5 µg/mL [1, 5]: 99.4%
- IC50 ([1]; Table I): 0.082 µg/mL

SMILES: COc1ccc(CCN(CC(=O)NC(C(=O)C(F)(F)F)C(C)C)C(=O)[C@@H](NC(=O)c2ccc(C(=O)NS(=O)(=O)c3ccc(Cl)cc3)cc2)C(C)C)cc1OC (stereo partly drawn) [[(4-(4-Chlorophenyl)sulfonylaminocarbonyl]phenyl-1-oxomethyl]-L-Valyl-N-[2-(3,4-dimethoxy)phenethyl] glycyl-N-[3-(1,1,1-trifluoro-4-methyl-2-oxypentyl)] amide]
- % Inhib. (20 ug. i.t.) [3]: 90.2%
- inhibition at 5 µg/mL [1, 4]: 98.8%
- inhibition at 5 µg/mL [1, 5]: 96.3%
- IC50 ([1]; IC50, Table I): 0.103 µM

SMILES: CC(C)C(NC(=O)CN(C(=O)[C@@H](NC(=O)c1ccc(C(=O)NS(=O)(=O)c2ccc(Cl)cc2)cc1)C(C)C)C1CCCC1)C(=O)C(F)(F)F (single isomer, unassigned) [[[4-(4-Chlorophenyl)sulfonylaminocarbonyl]phenyl-1-oxomethyl]-L-Valyl-N-cyclopentyl-glycyl-N-[3-(1,1,1-trifluoro-4-methyl-2-oxypentyl)]amide]
- % Inhib. (20 ug. i.t.) [3]: 99.2%
- inhibition at 5 µg/mL [1, 4]: 100%
- inhibition at 5 µg/mL [1, 5]: 99.8%
- IC50 ([1]; Table I, read-out: IC50 (converted)): 0.113 µM and 0.0923 µM
